Experimental data from patent US10597388B2, “Pyridazinone herbicides” (FMC CORPORATION, priority 2014, dated 2020).

Columns and labels:
Format in all cases: in vivo
[1] = test system: barnyardgrass (Echinochloa crus-galli); experiment: Test A greenhouse herbicide test, pre- and postemergence
Excerpt: (§1) Seeds of plant species selected from barnyardgrass (Echinochloa crus-galli), kochia (Kochia scoparia), ragweed (common ragweed, Ambrosia elatior), ryegrass, Italian (Italian ryegrass, Lolium multiflorum), crabgrass, large (large crabgrass, Digitaria sanguinalis), foxtail, giant (giant foxtail, Setaria faberii), momingglory (Ipomoea spp.), pigweed (Amaranthus retroflexus), velvetleaf (Abutilon theophrasti), wheat (Triticum aestivum), and corn (Zea mays) were planted into a blend of loam soil and sand and treated preemergence with a directed soil spray using test chemicals formulated in a non-phytotoxic solvent mixture which included a surfactant.
(§2) At the same time, plants selected from these crop and weed species and also blackgrass (Alopecurus myosuroides), and galium (catchweed bedstraw, Galium aparine) were planted in pots containing the same blend of loam soil and sand and treated with postemergence applications of test chemicals formulated in the same manner. Plants ranged in height from 2 to 10 cm and were in the one- to two-leaf stage for the postemergence treatment. Treated plants and untreated controls were maintained in a greenhouse for approximately 10 d, after which time all treated plants were compared to untreated controls and visually evaluated for injury. Plant response ratings, summarized in Table A, are based on a 0 to 100 scale where 0 is no effect and 100 is complete control. A dash (-) response means no test result.

corn (Zea mays) = experiment: as above; details: Postemergence; for Plant response rating, Corn: 125 g ai/ha; for Corn plant response rating: 500 g ai/ha, 0 to 100 scale, 0 is no effect, 100 is complete control
Excerpt: as §1, §2

[2] = test system: foxtail, giant (giant foxtail, Setaria faberii); experiment: as above
Excerpt: as §1, §2

kochia (Kochia scoparia) = experiment: as above
Excerpt: as §1, §2

[3] = test system: pigweed (Amaranthus retroflexus); experiment: as above
Excerpt: as §1, §2

[4] = test system: ragweed (common ragweed, Ambrosia elatior); experiment: as above
Excerpt: as §1, §2

[5] = test system: ryegrass, Italian (Italian ryegrass, Lolium multiflorum); experiment: as above
Excerpt: as §1, §2

[6] = test system: wheat (Triticum aestivum); experiment: as above; details: Postemergence; for Plant response rating, Wheat: 125 g ai/ha, 0 to 100 scale where 0 is no effect and 100 is complete control; for Wheat plant response rating: 500 g ai/ha, 0 to 100 scale, 0 is no effect, 100 is complete control
Excerpt: as §1, §2

[7] = test system: blackgrass (Alopecurus myosuroides); experiment: Test A greenhouse herbicide test, postemergence; details: for Plant response rating, Blackgrass: 125 g ai/ha; for Blackgrass plant response rating: 500 g ai/ha, 0 to 100 scale, 0 is no effect, 100 is complete control
Excerpt: as §2

[8] = test system: galium (catchweed bedstraw, Galium aparine); experiment: Test A greenhouse herbicide test, postemergence; details: for Plant response rating, Galium: 125 g ai/ha; for Galium plant response rating: 500 g ai/ha, 0 to 100 scale, 0 is no effect, 100 is complete control
Excerpt: as §2

[9] = Postemergence, 125 g ai/ha, visual rating after approx. 10 d, 0 to 100 scale (0 no effect, 100 complete control)
[10] = Postemergence, 500 g ai/ha, 0 to 100 scale, 0 is no effect, 100 is complete control
[11] = Preemergence, 125 g ai/ha, 0 to 100 scale where 0 is no effect and 100 is complete control
[12] = Preemergence, 500 g ai/ha, 0 to 100 scale, 0 no effect, 100 complete control
[13] = visual rating after approx. 10 d, 0 to 100 scale (0 no effect, 100 complete control)
[14] = Postemergence, 125 g ai/ha, 0 to 100 scale where 0 is no effect and 100 is complete control
[15] = 0 to 100 scale where 0 is no effect and 100 is complete control
[16] = Preemergence, 500 g ai/ha, 0 to 100 scale where 0 is no effect and 100 is complete control

Row | SMILES | Barnyardgrass plant response rating [1, 10] | Barnyardgrass plant response rating [1, 11] | Plant response rating, Barnyardgrass [1, 12] | Corn plant response rating (corn (Zea mays)) | Foxtail, Giant plant response rating [2, 10] | Foxtail, Giant plant response rating [2, 11] | Plant response rating, Foxtail, Giant [2, 12] | Kochia plant response rating (kochia (Kochia scoparia); [10]) | Kochia plant response rating (kochia (Kochia scoparia); [11]) | Pigweed plant response rating [3, 10] | Pigweed plant response rating [3, 11] | Ragweed plant response rating [4, 10] | Ragweed plant response rating [4, 11] | Plant response rating, Ryegrass, Italian [5, 14] | Ryegrass, Italian plant response rating [5, 10] | Ryegrass, Italian plant response rating [5, 11] | Plant response rating, Wheat [6] | Wheat plant response rating [6] | Blackgrass plant response rating [7] | Galium plant response rating [8] | other results
1 | COc1nn(C)c(=O)c(-c2c(C)ccc3ccc(C)cc23)c1O [Compound 30] | 30 | 0 | 10 | 0 | 60 | 0 | 60 | 80 | 0 | 90 | 80 | 70 | 0 | 70 | 60 | 30 | 10 | 10 | 60 | 90 | Plant response rating, Barnyardgrass [1, 9]: 0; Plant response rating, Corn (corn (Zea mays); [13]): 0; Plant response rating, Foxtail, Giant [2, 9]: 0; Plant response rating, Kochia (kochia (Kochia scoparia); [9]): 60; Plant response rating, Kochia (kochia (Kochia scoparia); [12]): 40; Plant response rating, Pigweed [3, 9]: 90; Plant response rating, Pigweed [3, 12]: 90; Plant response rating, Ragweed [4, 9]: 40; Plant response rating, Ragweed [4, 12]: 70; Plant response rating, Ryegrass, Italian [5, 12]: 50; Plant response rating, Blackgrass [7, 13]: 20; Plant response rating, Galium [8, 13]: 70
2 | CCc1ccc2ccccc2c1-c1c(OC(=O)C2CC2)c(C)nn(C)c1=O [Compound 38] | 40 | 0 | 10 | 10 | 50 | 0 | 40 | 80 | 40 | 50 | 0 | 70 | 0 | 0 | 50 | 40 | 10 | 20 | 60 | 100 | Plant response rating, Barnyardgrass [1, 9]: 0; Plant response rating, Corn (corn (Zea mays); [13]): 0; Plant response rating, Foxtail, Giant [2, 9]: 0; Plant response rating, Kochia (kochia (Kochia scoparia); [9]): 30; Plant response rating, Kochia (kochia (Kochia scoparia); [12]): 40; Plant response rating, Pigweed [3, 9]: 50; Plant response rating, Pigweed [3, 12]: 80; Plant response rating, Ragweed [4, 9]: 40; Plant response rating, Ragweed [4, 12]: 70; Plant response rating, Ryegrass, Italian [5, 12]: 70; Plant response rating, Blackgrass [7, 13]: 50; Plant response rating, Galium [8, 13]: 80
3 | Cc1ccc2oc(C)c(-c3c(O)c(-c4ccccc4)nn(C)c3=O)c2c1 [Compound 61] | 0 | 0 | 0 | 0 | 0 | 0 | 0 | 0 | 0 | 0 | 0 | 0 | 0 | 0 | 0 | 0 | 0 | 0 | 0 | 0 | Plant response rating, Barnyardgrass [1, 14]: 0; Plant response rating, Corn (corn (Zea mays); [15]): 0; Plant response rating, Foxtail, Giant [2, 14]: 0; Plant response rating, Kochia (kochia (Kochia scoparia); [14]): 0; Plant response rating, Kochia (kochia (Kochia scoparia); [12]): 0; Plant response rating, Pigweed [3, 14]: 0; Plant response rating, Pigweed [3, 12]: 0; Plant response rating, Ragweed [4, 14]: 0; Plant response rating, Ragweed [4, 12]: 0; Plant response rating, Ryegrass, Italian [5, 12]: 0; Plant response rating, Blackgrass [7, 15]: 0; Plant response rating, Galium [8, 15]: 0
4 | CCc1nn(CC)c(=O)c(-c2c(C)oc3ccc(C)cc23)c1O [Compound 64] | 0 | 0 | 0 | 0 | 0 | 0 | 0 | 0 | 0 | 0 | 0 | 0 | 0 | 0 | 0 | 0 | 0 | 0 | 0 | 0 | Plant response rating, Barnyardgrass [1, 14]: 0; Plant response rating, Corn (corn (Zea mays); [15]): 0; Plant response rating, Foxtail, Giant [2, 14]: 0; Plant response rating, Kochia (kochia (Kochia scoparia); [14]): 0; Plant response rating, Kochia (kochia (Kochia scoparia); [12]): 0; Plant response rating, Pigweed [3, 14]: 0; Plant response rating, Pigweed [3, 12]: 0; Plant response rating, Ragweed [4, 14]: 0; Plant response rating, Ragweed [4, 12]: 0; Plant response rating, Ryegrass, Italian [5, 12]: 0; Plant response rating, Blackgrass [7, 15]: 0; Plant response rating, Galium [8, 15]: 0
5 | Cc1nn(C)c(=O)c(-c2cccc3ccc(I)cc23)c1O [Compound 70] | 10 | 0 | 30 | 0 | 25 | 0 | – | 60 | 10 | 80 | 60 | 70 | 70 | 60 | 80 | 60 | 0 | 0 | 30 | 90 | Plant response rating, Barnyardgrass [1, 14]: 0; Plant response rating, Corn (corn (Zea mays); [15]): 0; Plant response rating, Foxtail, Giant [2, 14]: 30; Plant response rating, Foxtail, Giant [2, 16]: 30; Plant response rating, Kochia (kochia (Kochia scoparia); [14]): 50; Plant response rating, Kochia (kochia (Kochia scoparia); [16]): 40; Plant response rating, Pigweed [3, 14]: 80; Plant response rating, Pigweed [3, 16]: 100; Plant response rating, Ragweed [4, 14]: 40; Plant response rating, Ragweed [4, 16]: 80; Plant response rating, Ryegrass, Italian [5, 16]: 90; Plant response rating, Blackgrass [7, 15]: 10; Plant response rating, Galium [8, 15]: 70
6 | Cc1nn(C)c(=O)c(-c2cccc3ccc(C4CC4)cc23)c1O [Compound 71] | 20 | 0 | 20 | 20 | 20 | 0 | – | 70 | 0 | 80 | 30 | 70 | 0 | 30 | 90 | 0 | 0 | 20 | 40 | 90 | Plant response rating, Barnyardgrass [1, 14]: 0; Plant response rating, Corn (corn (Zea mays); [15]): 0; Plant response rating, Foxtail, Giant [2, 14]: 0; Plant response rating, Foxtail, Giant [2, 16]: 50; Plant response rating, Kochia (kochia (Kochia scoparia); [14]): 50; Plant response rating, Kochia (kochia (Kochia scoparia); [16]): 20; Plant response rating, Pigweed [3, 14]: 70; Plant response rating, Pigweed [3, 16]: 100; Plant response rating, Ragweed [4, 14]: 70; Plant response rating, Ragweed [4, 16]: 20; Plant response rating, Ryegrass, Italian [5, 16]: 70; Plant response rating, Blackgrass [7, 15]: 30; Plant response rating, Galium [8, 15]: 70
